Assay results: ChEMBL document CHEMBL1137578, “Small molecules block the polymerization of Z alpha1-antitrypsin and increase the clearance of intracellular aggregates” (2007)
Active and inactive are the calls of the source. No cut-off for these calls is given here.

Experiments:
Homo sapiens [1] = species on record: Homo sapiens; assay: Inhibition of polymerization of alpha-1-antitrypsin Z mutant
Mus musculus = species on record: Mus musculus; assay: (§1) Reduction in intracellular accumulation of alpha-1 antitrypsin Z mutant in mouse Hepa1a cells at 100 uM after 16 hrs; format: functional
Homo sapiens [2] = species on record: Homo sapiens; assay: Inhibition of polymerization of alpha-1-antitrypsin Z mutant at 10 uM
Homo sapiens [3] = species on record: Homo sapiens; assay: Inhibition of polymerization of alpha-1-antitrypsin Z mutant at 5 uM
Homo sapiens [4] = species on record: Homo sapiens; assay: Inhibition of polymerization of alpha-1-antitrypsin Z mutant at 20 uM
[5] = target: T1, Alpha-1-antichymotrypsin (Homo sapiens) (UniProt P01011); assay: Inhibition of polymerization of alpha-1 antichymotrypsin at 200 uM
T1 sequence (whole entry): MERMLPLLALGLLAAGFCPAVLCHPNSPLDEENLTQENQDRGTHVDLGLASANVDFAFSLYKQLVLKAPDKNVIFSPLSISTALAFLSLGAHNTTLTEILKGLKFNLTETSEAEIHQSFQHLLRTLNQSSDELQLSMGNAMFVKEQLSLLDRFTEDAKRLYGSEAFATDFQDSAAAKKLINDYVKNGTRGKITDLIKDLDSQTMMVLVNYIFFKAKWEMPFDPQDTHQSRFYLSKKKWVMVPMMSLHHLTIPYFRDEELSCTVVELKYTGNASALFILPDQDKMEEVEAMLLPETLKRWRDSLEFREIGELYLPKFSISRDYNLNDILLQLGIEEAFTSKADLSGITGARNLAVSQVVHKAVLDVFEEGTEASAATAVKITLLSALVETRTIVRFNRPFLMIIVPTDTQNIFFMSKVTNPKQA

Homo sapiens [6] = species on record: Homo sapiens; assay: Inhibition of polymerization of alpha-1-antitrypsin Z mutant at 50 uM
[7] = as §1; format: functional; design: scale not given: the % may be the effect or the level left

Question: With `COc1ccccc1Nc1ccc2c(O)cc(S(=O)(=O)O)cc2c1` as the molecule, how does the Activity (Homo sapiens [1]) read?
Answer: Its Activity is “Active”.

Question: Which Activity (Mus musculus) does the source give for `COc1c(C)cc(NS(=O)(=O)c2ccc(SC)cc2)cc1C` here?
Answer: The Activity was “inactive”.

Question: Which Activity (Homo sapiens [2]) does the source give for `Oc1ccc(-c2n[nH]cc2-c2cnn(-c3ccccc3)c2)c(O)c1O` here?
Answer: The Activity was “Active”.

Question: Which Activity (Homo sapiens [2]) does the source give for `Oc1ccc(-c2n[nH]cc2-c2ccn(-c3ccccc3)n2)c(O)c1O` here?
Answer: Its Activity is “Active”.

Question: For `Cc1cc(NS(=O)(=O)c2cccc([N+](=O)[O-])c2)cc(C)c1O`, which Activity (Homo sapiens [2]) is on record?
Answer: Its Activity is “Active”.

Question: Which Activity (Homo sapiens [1]) does the source give for `CSc1ccc(C(Nc2ccccn2)c2oc(CO)cc(=O)c2O)cc1` (configuration not stated) here?
Answer: The Activity was “Active”.

Question: For `NS(=O)(=O)c1ccc(Nc2nc(-c3ccc(O)cc3O)cs2)cc1`, which Activity (Homo sapiens [1]) is on record?
Answer: Its Activity is “Active”.

Question: What does the source list for `Cc1ccc(S(=O)(=O)Nc2cc(C)c(O)c(Sc3nnc(C)[nH]3)c2)cc1`?
Answer: Activity (Homo sapiens [2]): Active; Activity (Homo sapiens [3]): Active; Activity (Mus musculus): inactive

Question: Which Activity (Homo sapiens [2]) does the source give for `Cc1cc(NS(=O)(=O)c2ccc([N+](=O)[O-])cc2)cc(C)c1O` here?
Answer: The Activity was “Active”.

Question: For `Cc1cc(NS(=O)(=O)c2ccccc2)cc(Br)c1O`, which Activity (Homo sapiens [2]) is on record?
Answer: Its Activity is “Active”.

Question: And the Activity (Homo sapiens [3])?
Answer: Its Activity is “Active”.

Question: For `Cc1cc(S(=O)(=O)Nc2cc(C)c(O)c(C)c2)c(C)s1`, which Activity (Homo sapiens [4]) is on record?
Answer: The Activity was “Active”.

Question: What about the Activity [5] of the same molecule?
Answer: Its Activity is “inactive”.

Question: And the Activity (Homo sapiens [6])?
Answer: The Activity was “Active”.

Question: And the Activity [7]?
Answer: Its Activity is 70%.

Question: Which Activity (Homo sapiens [1]) does the source give for `O=C1c2ccc(O)cc2OC(c2ccc(O)c(O)c2O)C1O` (configuration not stated) here?
Answer: The Activity was “Active”.

Question: Which results are given for `Cc1ccc(S(=O)(=O)Nc2cc(C)c(O)c(Sc3nnc[nH]3)c2)cc1`?
Answer: Activity (Homo sapiens [2]): Active; Activity (Homo sapiens [3]): Active

Question: For `Cc1cc(NS(=O)(=O)c2ccccc2)cc(Cl)c1O`, which Activity (Homo sapiens [2]) is on record?
Answer: The Activity was “Active”.

Question: For `Cc1cc(NS(=O)(=O)c2ccccc2)cc(C)c1O`, which Activity (Homo sapiens [6]) is on record?
Answer: The Activity was “Active”.
